The source made the active and inactive calls. The rule behind the calls is not given here.
Columns and labels:
[1] = test system: Glycine max; assay: Inhibition of soybean lipoxygenase using sodium linoleate as substrate up to 100 uM measured for 6 mins
[2] = Antioxidant activity in rat liver microsome membrane assessed as inhibition of lipid peroxidation after 45 mins by TBARS-based spectrophotometric assay; assay type: functional, microsomes
[3] = test system: Radical scavenging activity; assay: Antioxidant activity assessed as DPPH radical scavenging activity after 30 mins; assay type: functional
[4] = molecular target: T1, Squalene synthase (Rattus norvegicus) (UniProt Q02769); assay: (§1) Inhibition of squalene synthase in rat liver microsomes assessed as decrease in conversion of [3H]FPP to squalene
T1 sequence (whole entry): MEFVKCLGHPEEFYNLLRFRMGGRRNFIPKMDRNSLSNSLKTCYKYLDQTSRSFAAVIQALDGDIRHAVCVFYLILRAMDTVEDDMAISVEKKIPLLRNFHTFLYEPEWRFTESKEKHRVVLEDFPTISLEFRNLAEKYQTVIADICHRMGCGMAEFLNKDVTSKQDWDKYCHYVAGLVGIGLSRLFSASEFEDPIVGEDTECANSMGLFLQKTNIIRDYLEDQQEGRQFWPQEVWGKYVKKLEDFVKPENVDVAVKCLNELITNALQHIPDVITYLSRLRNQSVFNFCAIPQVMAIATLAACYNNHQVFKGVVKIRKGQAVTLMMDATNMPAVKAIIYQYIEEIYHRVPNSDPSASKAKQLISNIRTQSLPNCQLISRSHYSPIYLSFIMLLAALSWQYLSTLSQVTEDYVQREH

[5] = molecular target: T2, Squalene synthase (Rattus norvegicus, UniProt Q02769); assay: as §1
T2 sequence (Q02769 whole entry): T1 sequence (whole entry)

[6] = test system: Mus musculus; assay: In vivo antiinflammatory activity in mouse assessed as decrease in carrageenan-induced paw edema at 0.30 mmol/kg, ip administered immediately after carrageenan injection measured after 3.5 hrs; assay type: functional
[7] = molecular target: T3, Prostaglandin G/H synthase 1 (Bos taurus) (UniProt O62664); assay: Inhibition of bovine COX-1 assessed as PGF2-alpha formation using arachidonic acid as substrate at 20 uM by enzyme immunoassay
T3 sequence (whole entry): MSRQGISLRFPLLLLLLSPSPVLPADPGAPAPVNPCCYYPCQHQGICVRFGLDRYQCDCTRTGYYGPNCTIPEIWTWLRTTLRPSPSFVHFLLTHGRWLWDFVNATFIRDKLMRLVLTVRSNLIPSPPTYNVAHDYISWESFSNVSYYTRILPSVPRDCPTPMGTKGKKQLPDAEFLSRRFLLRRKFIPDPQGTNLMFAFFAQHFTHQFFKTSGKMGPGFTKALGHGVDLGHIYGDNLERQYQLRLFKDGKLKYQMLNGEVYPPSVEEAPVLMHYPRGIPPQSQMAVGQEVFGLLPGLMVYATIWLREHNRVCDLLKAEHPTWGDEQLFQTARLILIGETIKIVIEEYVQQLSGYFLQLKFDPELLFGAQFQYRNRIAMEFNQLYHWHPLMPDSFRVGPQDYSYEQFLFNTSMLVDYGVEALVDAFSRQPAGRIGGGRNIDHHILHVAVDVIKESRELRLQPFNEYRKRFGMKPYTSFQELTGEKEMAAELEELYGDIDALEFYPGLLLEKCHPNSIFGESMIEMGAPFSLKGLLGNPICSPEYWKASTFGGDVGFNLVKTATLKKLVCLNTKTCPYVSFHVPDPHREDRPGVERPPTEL

[8] = test system: Rattus norvegicus; assay: In vivo antidyslipidemic activity against Triton WR 1339-induced hyperlipidemic Wistar rat model assessed as decrease in triglyceride level in plasma at 56 umol/kg, ip administered as single dose 1 hr after Triton WR 1339 challenge measured after 24 hrs; assay type: functional
[9] = test system: Rattus norvegicus; assay: In vivo antidyslipidemic activity against Triton WR 1339-induced hyperlipidemic Wistar rat model assessed as decrease in total cholesterol level in plasma at 56 umol/kg, ip administered as single dose 1 hr after Triton WR 1339 challenge measured after 24 hrs; assay type: functional
[10] = test system: Rattus norvegicus; assay: In vivo antidyslipidemic activity against Triton WR 1339-induced hyperlipidemic Wistar rat model assessed as decrease in LDL-cholesterol level in plasma at 56 umol/kg, ip administered as single dose 1 hr after Triton WR 1339 challenge measured after 24 hrs; assay type: functional
[11] = Inhibition of soybean lipoxygenase using sodium linoleate as substrate measured for 6 mins
[12] = test system: Radical scavenging activity; assay: Antioxidant activity assessed as DPPH radical scavenging activity up to 50 uM measured within 15 mins; assay type: functional
[13] = species on record: Homo sapiens; assay: Antioxidant activity against CuSO4-induced human LDL oxidation assessed as delta-lag time at 0.25 uM by spectrophotometric analysis; assay type: functional
[14] = species on record: Homo sapiens; assay: Antioxidant activity against CuSO4-induced human LDL oxidation assessed as increase in lag time at 1 uM by spectrophotometric analysis; assay type: functional
[15] = species on record: Homo sapiens; assay: Antioxidant activity against CuSO4-induced human LDL oxidation assessed as inhibition of rate of conjugate diene formation at 0.50 uM by spectrophotometric analysis; assay type: functional
[16] = species on record: Homo sapiens; assay: Antioxidant activity against CuSO4-induced human LDL oxidation assessed as delta-lag time at 0.50 uM by spectrophotometric analysis; assay type: functional
[17] = species on record: Homo sapiens; assay: Antioxidant activity against CuSO4-induced human LDL oxidation assessed as increase in lag time at 0.50 uM by spectrophotometric analysis; assay type: functional
[18] = species on record: Homo sapiens; assay: Antioxidant activity against CuSO4-induced human LDL oxidation assessed as inhibition of rate of conjugate diene formation at 1 uM by spectrophotometric analysis; assay type: functional
[19] = species on record: Homo sapiens; assay: Antioxidant activity against CuSO4-induced human LDL oxidation assessed as inhibition of rate of conjugate diene formation at 0.25 uM by spectrophotometric analysis; assay type: functional
[20] = species on record: Homo sapiens; assay: Antioxidant activity against CuSO4-induced human LDL oxidation assessed as lag time at 0.50 uM by spectrophotometric analysis (reference value: 113 mins); assay type: functional
[21] = species on record: Homo sapiens; assay: Antioxidant activity against CuSO4-induced human LDL oxidation assessed as increase in lag time at 0.25 uM by spectrophotometric analysis; assay type: functional
[22] = species on record: Homo sapiens; assay: Antioxidant activity against CuSO4-induced human LDL oxidation assessed as prolongation of lag time by spectrophotometric analysis; assay type: functional
[23] = species on record: Homo sapiens; assay: Antioxidant activity against CuSO4-induced human LDL oxidation assessed as lag time at 0.25 uM by spectrophotometric analysis (reference value: 113 mins); assay type: functional

inhibition [1]	IC50 [2] [µM]	IC50 [3] [µM]	inhibition [4]	IC50 [5] [µM]	inhibition [7] [%]	SMILES	inhibition in vivo at 56 µmol/kg [8] [%]	inhibition in vivo at 56 µmol/kg [9] [%]	inhibition in vivo at 56 µmol/kg [10] [%]	other results
–	83	271	–	–	90	CN1CC(O)(c2ccc(-c3ccccc3)cc2)Sc2ccccc21 (configuration not stated)	38	58	26	–
–	9	119	–	–	36	CN1CC(O)(c2ccc(-c3ccccc3)cc2)Oc2ccccc21 (configuration not stated)	73	62	74	–
inactive	70.2	> 400	Dose-dependent effect	3.6	17	CN1CCOC(O)(c2ccc3c(c2)N(C)c2ccccc2S3)C1 (racemic)	–	–	–	–
–	1.6	337	Dose-dependent effect	3.3	–	CN1CC(O)(c2ccc3c(c2)Nc2ccccc2S3)Oc2ccccc21 (configuration not stated)	–	–	–	Activity [12]: Active
inactive	36	> 400	Dose-dependent effect	25.3	–	CC(=O)N1c2ccccc2Sc2ccc(C3(O)CN(C)CCO3)cc21 (racemic)	76	63	48	–
–	0.33	150	–	> 50	–	CC1=CSC(O)(c2ccc3c(c2)Nc2ccccc2S3)CN1C=O (configuration not stated)	–	–	–	Activity [12]: Active
inactive	0.55	184	Dose-dependent effect	2.7	55	OC1(c2ccc3c(c2)Nc2ccccc2S3)CN2CCCCC2CO1 (racemic)	63	36	58	TIME [13]: 0.65 h; Activity [14]: 100%; inhibition [15]: 20%; TIME [16]: 1.5 h; Activity [17]: 80%; inhibition [18]: 100%; inhibition [19]: 0%; Activity [12]: Active; TIME [20]: 3.38 h; Activity [21]: 35%; Activity [22]: Dose-dependent effect; TIME [23]: 2.53 h

The remaining lines, values behind:

SMILES	inhibition [1]	IC50 [2] [µM]	IC50 [3] [µM]	inhibition [4]	IC50 [5] [µM]	inhibition [7] [%]	inhibition in vivo at 56 µmol/kg [8] [%]	inhibition in vivo at 56 µmol/kg [9] [%]	inhibition in vivo at 56 µmol/kg [10] [%]	other results
CC(=O)N1c2ccccc2Sc2ccc(C3(O)CN(C)C4CCCCC4O3)cc21 (racemic)	inactive	14	> 400	Dose-dependent effect	1.6	–	–	–	–	–
COc1ccc2c(c1)c(CC(=O)O)c(C)n2C(=O)c1ccc(Cl)cc1 [INDOMETHACIN]	–	–	–	–	–	100	–	–	–	inhibition in vivo at 300 µmol/kg [6]: 54%
CC(C)(Sc1cc(C(C)(C)C)c(O)c(C(C)(C)C)c1)Sc1cc(C(C)(C)C)c(O)c(C(C)(C)C)c1 [PROBUCOL]	–	> 1000	234	–	–	–	11	18	18	–
CN1c2ccccc2Sc2ccc(C3(O)CN(C)C4CCCCC4O3)cc21 (racemic)	inactive	57	> 400	Dose-dependent effect	4.7	–	27	26	34	–
CC(=O)N1c2ccccc2Sc2ccc(C3(O)CN4CCCCC4CO3)cc21 (racemic)	inactive	12	> 400	Dose-dependent effect	16.4	–	–	–	–	–
COc1ccc2cc([C@H](C)C(=O)O)ccc2c1 [NAPROXEN]	–	–	–	–	–	30	–	–	–	IC50 [11]: 24 µM; inhibition in vivo at 300 µmol/kg [6]: 51%
CN1CC(O)(c2ccc(-c3ccccc3)cc2)OC2CCCCC21 (configuration not stated)	–	450	> 400	–	–	–	49	54	51	–
O=c1c(O)c(-c2ccc(O)c(O)c2)oc2cc(O)cc(O)c12 [QUERCETIN]	–	20	96	–	–	–	–	–	–	–
CCC(C)(C)C(=O)O[C@H]1C[C@@H](C)C=C2C=C[C@H](C)[C@H](CC[C@@H]3C[C@@H](O)CC(=O)O3)[C@H]21 [SIMVASTATIN]	–	–	–	–	–	–	0	75	70	–
CN1c2ccccc2Sc2ccc(C3(O)CN4CCCCC4CO3)cc21 (racemic)	inactive	68	> 400	Dose-dependent effect	2.3	–	71	55	26	–
